The results in this text go back to patent US8637480B2, “Mitochondrial function-improving agent” (National University Corporation Kumamoto University, priority 2009, dated 2014).

d = 2'-deoxy (DNA); r = 2'-OH (RNA)

For data set [1], the system named is LSD1 target genes such as PGC-1α in 3T3-L1 cells. The experiment in a line: Expression of LSD1 target genes under inhibition of enzymes associated with FAD synthesis (quantitative RT-PCR). It counts as cell-based, mouse. Conditions: siRNA against FAD synthesis enzymes. As to the method:
(8) Induction of Expression of LSD1 Target Genes by Inhibition of Enzyme Associated with FAD Synthesis (FIG. 9)
(§1) Using Trizol reagent (Invitrogen), total RNA was extracted from 3T3-L1 cells in which siRNA against riboflavin kinase (RFK) or FAD synthase (FADS) had been introduced. […] Using FAD assay kit (BioVision), the amount of FAD in the cells was measured under inhibition of FAD synthesis.

Data set [2] relates to LSD1 target genes in 3T3-L1 cells. The experiment in a line: Comprehensive analysis of LSD1 target genes in 3T3-L1 cells using microarray. The format is cell-based, mouse. The conditions noted are these: for expression of the LSD1 target candidates (microarray): tranylcypromine 10^−4 M. As to the method: (1) Comprehensive Analysis of LSD1 Target Genes in 3T3-L1 Cells, Using Microarray (FIG. 1)
An adipogenesis induction medium was prepared by dissolving […] 3-isobutyl-1-methylxanthine, 1 μM dexamethasone and 5 μg/ml insulin in a Dulbecco's modified Eagle's medium containing 10% fetal bovine serum. Total RNA was extracted using RNeasy mini column (Qiagen). Using GeneChip Mouse Genome Array 430—2 in combination with GeneChip Hybridization, Wash and Stain Kit (Affymetrix), genome-wide expression analysis was carried out
Thereafter, RNA analysis was carried out as described above. Using GeneChip Mouse Genome Array 430—2 in combination with GeneChip Hybridization, Wash and Stain Kit (Affymetrix), genome-wide expression analysis was carried out.

The next data set deals with FAD in 3T3-L1 cells. The experiment in a line: Amount of FAD in cells (FAD assay kit). It counts as cell-based, mouse. The conditions noted are these: FAD synthesis inhibited. As to the method: as §1
For data set [3], the system named is PGC-1α gene expression in 3T3-L1 cells. The experiment in a line: Expression analysis of PGC-1α gene and the like by quantitative real-time PCR. It counts as cell-based, mouse. The conditions noted are these: standardized against 36B4, versus control siRNA or vehicle. The procedure: (2) Expression Analysis of PGC-1α gene and the Like by Quantitative Real-time PCR (FIG. 2)
Total RNA was extracted using Trizol reagent (Invitrogen). Quantitative RT-PCR was carried out using Fast SYBR Green System (Applied Biosciences). […] The value is given as a multiple of induction to a sample into which control siRNA has been introduced or a sample treated with a vehicle. Statistical significant difference is indicated by *p<0.05, **p<0.01, with respect to control (the same applies below). The following primers were used.
(Real-time PCR tracks product formation cycle by cycle.)

The next data set concerns 3T3-L1 cells. The experiment in a line: Mitochondrial biosynthesis in 3T3-L1 cells by JC-1 staining and flow cytometry. The format is cell-based, mouse. The conditions noted are these: tranylcypromine 10^−3 or 10^−4 M, flow cytometry. The procedure: For the measurement of mitochondrial biosynthesis, cells were stained with a fluorescent dye JC-1 (Molecular Probes), and they were then analyzed by flow cytometry. JC-1 binds to the mitochondrial inner membrane to emit green fluorescence, and forms a red fluorescent aggregate, depending on membrane potential. Accordingly, the amount of mitochondria can be evaluated by detecting the green fluorescence, whereas the amount of mitochondrial electron transport can be evaluated by detecting the red fluorescence. […] Subsequently, the cells were allowed to come into contact with 5 μg/ml JC-1 in a medium at 37° C. for 15 minutes, and they were then suspended in PBS, followed by FACS analysis. The green fluorescence and the red fluorescence were detected by FL1 and FL2 settings, respectively. The value indicates a mean fluorescence intensity in each setting.
On the technique in general: A flow cytometer gives signals particle by particle.

The subject of data set [4] is LSD1 target genes including PGC-1α. Conditions: high fat diet 6 weeks, 10 mg/kg intraperitoneally every other day, versus PBS.
Data set [5] relates to dimethylated H3K4 at LSD1 target gene promoters in 3T3-L1 cells. Description: Chromatin immunoprecipitation (ChIP) assay for methylation of H3K4. It counts as cell-based, mouse. The procedure:
(3) Chromatin Immunoprecipitation (ChIP) Assay for Detecting Methylation of 4th Lysine Residue of Histone H3 (H3K4) and Binding of LSD1 (FIG. 3 and FIG. 4)
A DNA-protein complex of 3T3-L1 cells was crosslinked using 1% formalin, and chromatin was then fragmented using a water tank ultrasonic processor. The chromatin fragments were incubated at 4° C. overnight in the presence of an antibody directed against methyl-H3K4, LSD1 or BHC80. Thereafter, the reaction product was recovered using agarose beads to which protein A and protein G had been bound. DNA was isolated, and real-time PCR was then carried out using the following primer set

Data set [6] deals with mPGC-1α promoter (pGL3-PGC-1α reporter) in 3T3-L1 cells. Description: PGC-1α promoter activity by luciferase assay. The format is cell-based, mouse. The conditions noted are these: adipose differentiation induced for 24 hours. The procedure: (4) Analysis of PGC-1α Promoter Activity by Luciferase Assay (FIG. 5)
In order to construct pGL3-PGC-1α (PGC-1α/Luc) that is a luciferase reporter vector containing an mPGC-1α promoter, a 3707 bps promoter fragment from −3627 to +80 was amplified by PCR, using primers containing a MluI site and a XhoI site at the 5′-terminus and 3′-terminus thereof, respectively. Luciferase assay was carried out using Dual-Luciferase Reporter Assay System (Promega) in accordance with protocols included therewith. 3T3-L1 cells were co-transfected with the pGL3-PGC-1α reporter vector and a pRL-TK reference vector, and adipose differentiation was induced in the presence or absence of TC for 24 hours. Thereafter, luciferase activity was measured. When siRNA was applied, it was introduced 24 hours before transfection with the reporter.

The test system of data set [7] is LSD1 target genes such as PGC-1α in 3T3-L1 cells. Conditions: 24 hours, 10^−4 M (clorgyline 10^−5 M). As to the method: (12) Effects of Various Types of MAO Inhibitors on LSD1 Target Gene Group (FIG. 13)
Thereafter, RNA analysis was carried out. Expression analysis was carried out as described above. The expression level of PGC-1α or the like was standardized against the internal control gene 36B4. The value was given as a multiple of induction to a control treated with a vehicle.

The mark [8] stands for this setting: 3T3-L1 cells, 24 hours differentiation induction.

With “RFK siRNA: siRNA against riboflavin kinase: sense SEQ ID NO: 33, antisense SEQ ID NO: 34 (sense UCUUCCAGCUGAUGUGUCUTT; antisense AGACACAUCAGCUGGAAGATT; sugars from the 5' end r19 d2, backbone not given here)”, the “expression of LSD1 target genes such as PGC-1α” value in data set [1] was “activated”. In addition, the “expression of a majority of LSD1 target genes (microarray)” value in data set [2] (3T3-L1 cells, RFK knock-down, 24 hours differentiation induction) was “induced”. The “amount of FAD in a cell” value in the data set on FAD in 3T3-L1 cells is recorded as “decreased”.
Regarding “BHC80 siRNA: siRNA against LSD1 coupling factor BHC80: sense SEQ ID NO: 31, antisense SEQ ID NO: 32 (sense GUUCCAGAUACAGCCAUUGTT; antisense CAAUGGCUGUAUCUGGAACTT; sugars from the 5' end r19 d2, backbone not given here)”, in data set [3], the “expression of genes such as PGC-1α (quantitative RT-PCR)” value (“expression of genes such as PGC-1α” below) is “Induction of the expression”. Besides, in data set [2] (setting [8]), the “expression of the LSD1 target candidates (microarray)” value was “induced”.
As for `N[C@@H]1C[C@H]1c1ccccc1` (racemic) [tranylcypromine, reference compound], in the data set on 3T3-L1 cells, the “amount of mitochondria (JC-1 green fluorescence, FL1)” value is on record as “stimulatory effect” and the “mitochondrial membrane potential (JC-1 red fluorescence, FL2)” value is recorded as “stimulatory effect”. In addition, in [3], the “expression of genes such as PGC-1α” value is “Induction of the expression”. Also, in [4], the “expression of LSD1 target genes including PGC-1α in fat around the testis” value is given as “increased” and the “expression of LSD1 target genes including PGC-1α in the liver” value was “The same results as described above were obtained”. In addition, the “amount of dimethylated H3K4 in other LSD1 target gene promoters such as PDK4” value in data set [5] is reported as “The same results were obtained”. The “amount of dimethylated H3K4 in PGC-1α promoter” value in data set [5] (under treatment) is on record as “increase in the amount of dimethylated H3K4 was detected”. The “expression of the LSD1 target candidates (microarray)” value in data set [2] (setting [8]) is “induced”. The “expression of luciferase reporter gene downstream of the PGC-1α promoter” value in data set [6] is given as “activated (disinhibited)”. Further, the “activation of LSD1 target genes such as PGC-1α compared with other MAO inhibitors” value in data set [7] is reported as “significant activation”.
For “LSD1 siRNA: siRNA against LSD1: sense SEQ ID NO: 29, antisense SEQ ID NO: 30 (sense CACAAGGAAAGCUAGAAGATT; antisense UCUUCUAGCUUUCCUUGUGTT; sugars from the 5' end r19 d2, backbone not given here)”, in the data set with 3T3-L1 cells, the “amount of mitochondria (JC-1 green fluorescence, FL1)” value is given as “the same results were obtained” and the “mitochondrial membrane potential (JC-1 red fluorescence, FL2)” value was “the same results were obtained”. In [3], the “expression of genes such as PGC-1α” value is given as “Induction of the expression”. Also, in data set [5], the “amount of dimethylated H3K4 in PGC-1α gene promoter versus control” value is recorded as “approximately 2 fold” and the “amount of dimethylated H3K4 in other LSD1 target gene promoters such as PDK4” value was “The same results were obtained”. Moreover, in data set [2] (differentiating 3T3-L1 cells, 24 hours in differentiation induction medium, microarray), the “number of target candidates induced to a higher level (2-fold or more)” value amounted to 601. Moreover, the “expression of luciferase reporter gene downstream of the PGC-1α promoter” value in [6] is “activated (disinhibited)”.
For “FADS siRNA: siRNA against FAD synthase: sense SEQ ID NO: 35, antisense SEQ ID NO: 36 (sense GAGCCCUUGGAGGAAUGUCTT; antisense GACAUUCCUCCAAGGGCUCTT; sugars from the 5' end r19 d2, backbone not given here)”, in [1], the “expression of LSD1 target genes such as PGC-1α” value is reported as “activated”. Also, the “amount of FAD in a cell” value in the data set with FAD in 3T3-L1 cells was “decreased”.
